Measured values published in patent US11299468B2, “Methods for producing 5-(halomethyl)furfural” (Origin Materials Operating, Inc., priority 2013, dated 2022).

Experiment: Partition coefficient screen of CMF between organic phase and acidic brine
Assay type: physicochemical
Procedure: The solvent system used in the methods and compositions described herein may also be selected based on the partition coefficient of the 5-(halomethyl)furfural in the reaction mixture. As used herein, “partition coefficient” refers to the ratio of molar concentration of 5-(halomethyl)furfural in the organic phase to 5-(halomethyl)furfural in the aqueous phase in the reaction mixture.
[…] […] A 1 mL sample was removed from each phase. The microwave vial was then resealed, and re-shaken.
The 1 mL samples were added to volumetric flasks, where the acidic brine solution was diluted with THF and an amount of 37% HCl (˜3 mL) sufficient to eliminate the formation of a biphase with THF. The organic phase sample was diluted with toluene. The dilutions were then put into 1 dram vials and saved.
Further sampling of each phase was repeated every […] for the duration of each 4-hour experiment resulting in a total of 6 samples per experiment. Throughout the course of the experiment the microwave vial was shaken every 20 minutes to promote contact between the two phases. The 6 samples of each experiment in this Example were then taken from the 1 dram vials and put into 1.5 ml vials and submitted to HPLC for CMF analysis.

[1] = No. 1, organic Toluene, aqueous HCl (11.66N), 25 °C
[2] = No. 2, organic Toluene, aqueous 1N H+ 11N Li+ 12N Cl−, 24.6 °C
[3] = No. 3, organic Toluene, aqueous 6N H+ 6N Li+ 12N Cl−, 25 °C
[4] = No. 4, organic Toluene, aqueous 2N H+ 10N Li+ 12N Cl−, 29.7 °C
[5] = No. 5, organic Toluene, aqueous 1N H+ 11N Li+ 12N Cl−, 50 °C
[6] = No. 6, organic Toluene, aqueous 6N H+ 6N Li+ 12N Cl−, 50 °C
[7] = No. 7, organic Toluene, aqueous 2N H+ 10N Li+ 12N Cl−, 50 °C
[8] = No. 8, organic Toluene, aqueous 2N H+ 4N Mg2+ 12N Cl−, 23.6 °C
[9] = No. 9, organic Toluene, aqueous 2N H+ 4M sodium triflate 2M Cl−, 27.1 °C
[10] = No. 10, organic Toluene, aqueous 2M H+ 10M Na+ 12M Cl−, 24.6 °C
[11] = No. 11, organic Toluene, aqueous 2M H+ 1:1 12M LiCl:saturated NaCl, 24.1 °C
[12] = No. 12, organic Toluene, aqueous 2M H+ saturated KCl, 24.2 °C
[13] = No. 13, organic Toluene, aqueous 2M H+ 1:1 12M LiCl:saturated KCl, 24.8 °C
[14] = No. 14, organic Toluene, aqueous 2M H+ 1:2 12M LiCl:saturated NaCl, 24.5 °C
[15] = No. 15, organic Toluene, aqueous 2M H+ 1:2 12M LiCl:saturated KCl, 24.5 °C
[16] = No. 16, organic Toluene, aqueous 2M H+ 1:1 12M LiCl:saturated MgCl2, 22 °C
[17] = No. 17, organic Toluene, aqueous 2M H+ 10M Zn2+ 24M Cl−, 22 °C
[18] = No. 18, organic Toluene, aqueous 2M H+ 4.13M Ca2+ 12.2M Cl−, 27 °C
[19] = No. 19, organic Toluene, aqueous 2M H+ 6M Ca2+ 14M Cl−, 27 °C
[20] = No. 20, organic Toluene, aqueous 2M H+ 4.13M Ca2+ 12.2M Cl−, 50 °C
[21] = No. 21, organic Toluene, aqueous 2M H+ 6M Ca2+ 14M Cl−, 50 °C
[22] = No. 22, organic Toluene, aqueous 2M H+ Satd. Rb, 24.5 °C
[23] = No. 23, organic Toluene, aqueous 2M H+ Satd. Cs, 24.5 °C
[24] = No. 24, organic Cepsa ® 550Q, aqueous 6N H+ 6N Li+ 12N Cl−, 23.3 °C
[25] = No. 25, organic Cepsa ® 550Q, aqueous 1N H+ 11N Li+ 12N Cl−, 24.5 °C
[26] = No. 26, organic Cepsa ® 900Q, aqueous 1N H+ 11N Li+ 12N Cl−, 22.8 °C
[27] = No. 27, organic Cepsa ® 900Q, aqueous 6N H+ 6N Li+ 12N Cl−, 26.5 °C
[28] = No. 28, organic Santovac ®-5, aqueous 1N H+ 11N Li+ 12N Cl−, 27.2 °C
[29] = No. 29, organic Santovac ®-5, aqueous 6N H+ 6N Li+ 12N Cl−, 23.7 °C
[30] = No. 30, organic Santovac ®-5, aqueous 2N H+ 10N Li+ 12N Cl−, 28.1 °C
[31] = No. 31, organic Santovac ®-5, aqueous 1N H+ 11N Li+ 12N Cl−, 50 °C
[32] = No. 32, organic Santovac ®-5, aqueous 6N H+ 6N Li+ 12N Cl−, 50 °C
[33] = No. 33, organic Santovac ®-5, aqueous 2N H+ 10N Li+ 12N Cl−, 50 °C
[34] = No. 34, organic Dichloroethane (4 mL), aqueous 37% HCl (4 mL), 28.5 °C
[35] = No. 35, organic Dichloroethane (17.6 mL), aqueous 37% HCl (4 mL), 28.5 °C

- Normalized ratio (organic:aqueous) [1]: 3.0
- log PC [1]: 0.48
- Normalized ratio (organic:aqueous) [2]: 144.0
- log PC [2]: 2.16
- Normalized ratio (organic:aqueous) [3]: 17.4
- log PC [3]: 1.24
- Normalized ratio (organic:aqueous) [4]: 72.9
- log PC [4]: 1.86
- Normalized ratio (organic:aqueous) [5]: 110.0
- log PC [5]: 2.04
- Normalized ratio (organic:aqueous) [6]: 18.9
- log PC [6]: 1.27
- Normalized ratio (organic:aqueous) [7]: 79.6
- log PC [7]: 1.9
- Normalized ratio (organic:aqueous) [8]: 61.3
- log PC [8]: 1.78
- Normalized ratio (organic:aqueous) [9]: 8.3
- log PC [9]: 0.92
- Normalized ratio (organic:aqueous) [10]: 66.1
- log PC [10]: 1.82
- Normalized ratio (organic:aqueous) [11]: 90.1
- log PC [11]: 1.95
- Normalized ratio (organic:aqueous) [12]: 222.0
- log PC [12]: 2.34
- Normalized ratio (organic:aqueous) [13]: 71.1
- log PC [13]: 1.85
- Normalized ratio (organic:aqueous) [14]: 100.0
- log PC [14]: 2
- Normalized ratio (organic:aqueous) [15]: 119.0
- log PC [15]: 2.07
- Normalized ratio (organic:aqueous) [16]: 68.0
- log PC [16]: 1.83
- Normalized ratio (organic:aqueous) [17]: 0.6
- log PC [17]: −0.23
- Normalized ratio (organic:aqueous) [18]: 73.8
- log PC [18]: 1.87
- Normalized ratio (organic:aqueous) [19]: 80.0
- log PC [19]: 1.9
- Normalized ratio (organic:aqueous) [20]: 82.6
- log PC [20]: 1.91
- Normalized ratio (organic:aqueous) [21]: 141.7
- log PC [21]: 2.15
- Normalized ratio (organic:aqueous) [22]: 74.7
- log PC [22]: 1.87
- Normalized ratio (organic:aqueous) [23]: 41.3
- log PC [23]: 1.61
- Normalized ratio (organic:aqueous) [24]: 1.6
- log PC [24]: 1.61
- Normalized ratio (organic:aqueous) [25]: 20.3
- log PC [25]: 1.31
- Normalized ratio (organic:aqueous) [26]: 10.2
- log PC [26]: 1.01
- Normalized ratio (organic:aqueous) [27]: 0.9
- log PC [27]: −0.04
- Normalized ratio (organic:aqueous) [28]: 60.7
- log PC [28]: 1.78
- Normalized ratio (organic:aqueous) [29]: 6.6
- log PC [29]: 0.82
- Normalized ratio (organic:aqueous) [30]: 43.7
- log PC [30]: 1.64
- Normalized ratio (organic:aqueous) [31]: 65.6
- log PC [31]: 1.81
- Normalized ratio (organic:aqueous) [32]: 10.3
- log PC [32]: 1.01
- Normalized ratio (organic:aqueous) [33]: 55.9
- log PC [33]: 1.74
- Normalized ratio (organic:aqueous) [34]: 10.9
- log PC [34]: 1.03
- Normalized ratio (organic:aqueous) [35]: 11.6
- log PC [35]: 1.7
Compound: O=Cc1ccc(CCl)o1 [CMF, 5-(chloromethyl)furfural]
